# Values quoted from earlier work as cited in patent publication US8927002B2, “Stent with a coating or a basic body containing a lithium salt and use of lithium salts for prevention of restenosis” (Biotronik VI Patent AG, priority 2008, dated 2015).
# Tests used:
# [1] = tested on: various prostate cancer cell lines; conditions: cell culture; by reducing gene expression in the S-phase of the cell cycle
# [2] = tested on: interleukins (IL-15; IL-8)
structure (smiles),measurement,setting,value
[Cl-].[Li+] [lithium chloride],proliferation of various prostate cancer cell lines,[1],significantly suppresses the proliferation
same,secretion of certain interleukins (IL-15; IL-8),[2],increased secretion
